One test deals with T1, PDGF-Ra (Homo sapiens, UniProt P16234).
T1 construct: host or cells: G-292 human osteosarcoma cells
Briefly: Inhibitory activity against PDGF-Ra phosphorylation by PDGF-AA stimulation using G292. The following applies: for IC50: > means inhibition at indicated concentration not more than 50%, < and << not less than 50%, read-out: PDGF (E) IC50. Format: cell-based. The essentials:
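In G-292 osteosarcoma cells kept overnight in 0.1% FBS, compound exposure (1 hr, 37 °C) preceded PDGF-AA stimulation at 50 ng/ml for 5 min; receptor phosphotyrosine was then detected by PY-20 capture ELISA.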

A further test has as its target T2, c-kit (Homo sapiens, UniProt P10721).
T2 construct: MO7e (human megakaryocytic leukemia cell line) which had been arrested for 20 hr; endogenous in cells; host or cells: MO7e human megakaryocytic leukemia cell line
The test is described as follows: Inhibitory activity against c-kit autophosphorylation (MO7e cells, h-SCF). The following applies: for IC50: MO7e cells, read-out: c-kit IC50; for inhibition at 1 µM: Mo7e, figure in parentheses in −( ). The class given is cell-based. The method in brief:
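In this cellular autophosphorylation assay, compound-treated MO7e cells (1 hr) were challenged with human stem cell factor at 50 ng/ml for 5 min; detection relied on PY-20 capture and anti-c-kit/HRP immunodetection at 450 nm.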

Like-named read-outs stand apart in the source and are kept apart here.

T2 sequence (P10721 26-976): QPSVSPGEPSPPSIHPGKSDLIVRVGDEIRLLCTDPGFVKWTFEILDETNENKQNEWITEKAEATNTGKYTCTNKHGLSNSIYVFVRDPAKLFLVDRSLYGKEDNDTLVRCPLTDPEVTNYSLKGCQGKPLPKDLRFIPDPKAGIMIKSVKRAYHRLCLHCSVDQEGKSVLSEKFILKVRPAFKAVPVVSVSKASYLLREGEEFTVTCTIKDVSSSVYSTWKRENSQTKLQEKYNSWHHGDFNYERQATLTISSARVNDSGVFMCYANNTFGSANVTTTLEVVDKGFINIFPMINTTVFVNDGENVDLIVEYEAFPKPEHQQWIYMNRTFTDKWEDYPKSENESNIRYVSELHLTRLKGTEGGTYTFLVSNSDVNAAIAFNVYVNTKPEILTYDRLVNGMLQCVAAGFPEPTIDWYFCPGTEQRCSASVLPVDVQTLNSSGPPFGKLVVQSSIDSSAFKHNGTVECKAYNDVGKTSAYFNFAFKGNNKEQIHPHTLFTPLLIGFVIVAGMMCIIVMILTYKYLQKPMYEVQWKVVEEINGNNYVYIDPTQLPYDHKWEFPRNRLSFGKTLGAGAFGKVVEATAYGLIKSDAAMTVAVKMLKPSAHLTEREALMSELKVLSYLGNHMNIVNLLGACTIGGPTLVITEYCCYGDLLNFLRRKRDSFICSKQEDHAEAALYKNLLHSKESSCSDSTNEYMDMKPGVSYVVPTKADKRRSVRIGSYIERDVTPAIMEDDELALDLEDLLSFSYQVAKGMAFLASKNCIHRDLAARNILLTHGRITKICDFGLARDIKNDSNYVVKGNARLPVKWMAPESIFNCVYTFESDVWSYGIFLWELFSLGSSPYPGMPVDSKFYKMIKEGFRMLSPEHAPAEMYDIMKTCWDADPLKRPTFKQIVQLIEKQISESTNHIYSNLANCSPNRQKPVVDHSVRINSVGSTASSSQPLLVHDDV
T1 sequence (P16234 24-1089): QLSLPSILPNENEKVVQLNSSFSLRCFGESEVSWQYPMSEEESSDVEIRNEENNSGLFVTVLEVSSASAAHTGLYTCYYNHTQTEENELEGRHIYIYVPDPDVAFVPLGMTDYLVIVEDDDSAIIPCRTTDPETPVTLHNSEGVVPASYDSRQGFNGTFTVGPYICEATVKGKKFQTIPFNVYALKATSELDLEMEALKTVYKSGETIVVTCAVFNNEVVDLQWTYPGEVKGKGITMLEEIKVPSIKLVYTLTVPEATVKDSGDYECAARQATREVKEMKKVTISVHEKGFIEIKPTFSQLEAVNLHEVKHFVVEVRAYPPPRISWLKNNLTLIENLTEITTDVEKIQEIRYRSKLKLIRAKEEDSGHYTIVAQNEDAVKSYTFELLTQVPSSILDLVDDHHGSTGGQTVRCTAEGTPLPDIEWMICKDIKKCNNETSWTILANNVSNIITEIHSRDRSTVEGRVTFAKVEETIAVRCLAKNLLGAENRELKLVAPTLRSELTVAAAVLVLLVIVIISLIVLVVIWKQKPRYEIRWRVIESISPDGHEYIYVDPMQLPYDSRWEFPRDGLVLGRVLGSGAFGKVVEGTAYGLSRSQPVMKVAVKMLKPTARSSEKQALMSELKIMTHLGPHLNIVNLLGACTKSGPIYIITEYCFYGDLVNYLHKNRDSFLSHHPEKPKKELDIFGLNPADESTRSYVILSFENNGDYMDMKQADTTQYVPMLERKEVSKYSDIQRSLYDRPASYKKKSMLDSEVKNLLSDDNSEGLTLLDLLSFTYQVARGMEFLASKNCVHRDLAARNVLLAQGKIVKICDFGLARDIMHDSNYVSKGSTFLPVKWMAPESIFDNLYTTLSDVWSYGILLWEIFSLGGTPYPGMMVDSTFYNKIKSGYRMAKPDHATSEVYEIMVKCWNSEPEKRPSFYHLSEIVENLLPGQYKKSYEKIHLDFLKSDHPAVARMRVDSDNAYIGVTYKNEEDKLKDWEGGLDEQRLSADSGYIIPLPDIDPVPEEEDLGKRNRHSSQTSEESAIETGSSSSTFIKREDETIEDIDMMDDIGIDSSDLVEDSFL

For the compound `COc1cc2ncnc(Oc3ccc(NC(=S)NC(=O)Cc4ccccc4)cc3)c2cc1OC` [Example 1148, N-{4-[(6,7-Dimethoxy-4-quinazolinyl)oxy]phenyl}-N′-(2-phenylacetyl)thiourea], the values for the IC50 on PDGF-Ra and at c-kit (h-SCF stimulation) were less than 10 nM and 42 nM, respectively.
On the same counts, the results for `CCN(C(=S)NC(=O)Cc1ccccc1)c1ccc(Oc2ccnc3cc(OC)c(OC)cc23)cc1` [Example 1149, N-{4-[(6,7-Dimethoxy-4-quinolyl)oxy]phenyl}-N-ethyl-N′-(2-phenylacetyl)thiourea] are 43 nM and 150 nM.
Turning to `COc1cc2ncnc(Oc3ccc(N)c(N4CCOCC4)c3)c2cc1OC` [Example 1150], the IC50 on PDGF-Ra was determined as 51 nM; on c-kit (h-SCF stimulation) it was 192 nM.
On the same counts, the results for `COc1cc2ncnc(Oc3ccc(NC(=S)NC(=O)c4ccccc4C)c(N4CCOCC4)c3)c2cc1OC` [Example 1151, N-{4-[(6,7-Dimethoxy-4-quinazolinyl)oxy]-2-morpholinophenyl}-N′-(2-methylbenzoyl)thiourea] are less than 10 nM and 146 nM.
In the case of `COc1cc2nccc(Oc3ccc(NC(=S)NC(=O)c4ccc(CN5CCOCC5)cc4)cc3)c2cc1OC` [Example 1153, N-{4-[(6,7-Dimethoxy-4-quinolyl)oxy]phenyl}-N′-[4-(morpholinomethyl)benzoyl]thiourea], the half-maximal inhibitory concentration (IC50) at PDGF-Ra turned out to be 43 nM. Besides, at c-kit (at 1000 nM), the inhibition at 1 µM was found to be 13%.
On the same counts, the results for `COc1cc2ncnc(Oc3ccc(NC(=S)NC(=O)c4ccc(C)nc4)cc3)c2cc1OC` [Example 1154, N-{4-[(6,7-Dimethoxy-4-quinazolinyl)oxy]phenyl}-N′-[(6-methyl-3-pyridyl)carbonyl]thiourea] are 49 nM and 21%.
On the same counts, the results for `COc1cc2ncnc(Oc3ccc(NC(=S)NC(=O)c4ccncc4)cc3)c2cc1OC` [Example 1155, N-{4-[(6,7-Dimethoxy-4-quinazolinyl)oxy]phenyl}-N′-(4-pyridylcarbonyl)thiourea] are 17 nM and 31%.
As to `COc1cc2ncnc(Oc3ccc(NC(=S)NC(=O)c4ccccn4)cc3)c2cc1OC` [Example 1156, N-{4-[(6,7-Dimethoxy-4-quinazolinyl)oxy]phenyl}-N′-(2-pyridylcarbonyl)thiourea], the IC50 on PDGF-Ra is more than 100 nM. Further, the inhibition at 0.1 µM at PDGF-Ra (G292, figure in parentheses in >100( ), at 100 nM, read-out: PDGF (E) inhibition (%) at 100 nM) came to 35%. Besides, on c-kit (at 1000 nM), the inhibition at 1 µM turned out to be 28%.
With `COc1cc2nccc(Oc3ccc(NC(=S)NC(=O)C4CCCCC4)cc3Cl)c2cc1OC` [Example 1179, N-{3-Chloro-4-[(6,7-dimethoxy-4-quinolyl)oxy]phenyl}-N′-cyclohexylcarbonylthiourea], the IC50 at PDGF-Ra is 14 nM; at c-kit (h-SCF stimulation) it was 327 nM.
On the same counts, the results for `COc1cc2ncnc(Oc3ccc(NC(=S)NC(=O)C4CCCCC4)cc3)c2cc1OC` [Example 1180, N-Cyclohexylcarbonyl-N′-{4-[(6,7-dimethoxy-4-quinazolinyl)oxy]phenyl}thiourea] are less than 10 nM and 480 nM.
On to `COc1cc2ncnc(Oc3ccc(NC(=S)NC(=O)C4CC4)cc3)c2cc1OC` [Example 1181, N-Cyclopropylcarbonyl-N′-{4-[(6,7-dimethoxy-4-quinazolinyl)oxy]phenyl}thiourea], for which the IC50 at PDGF-Ra came out at 35 nM. Moreover, at c-kit (at 1000 nM), the inhibition at 1 µM stood at 26%.
`COc1cc2nccc(Oc3ccc(NC(=S)NC(=O)C4CCCC4)cc3Cl)c2cc1OC` [Example 1182, N-{3-Chloro-4-[(6,7-dimethoxy-4-quinolyl)oxy]phenyl}-N′-cyclopentylcarbonylthiourea]: the IC50 at PDGF-Ra is less than 10 nM; at c-kit (h-SCF stimulation), 206 nM.
Regarding `COc1cc2ncnc(Oc3ccc(NC(=S)NC(=O)C4CCCC4)cc3)c2cc1OC` [Example 1183, N-Cyclopentylcarbonyl-N′-{4-[(6,7-dimethoxy-4-quinazolinyl)oxy]phenyl}thiourea], the IC50 at PDGF-Ra is less than 10 nM; on c-kit (h-SCF stimulation) it was 427 nM.
On to `COc1cc2ncnc(Oc3ccc(NC(=S)NC(=O)CCc4cccc(C)c4)cc3)c2cc1OC` [Example 1185, N-{4-[(6,7-Dimethoxy-4-quinazolinyl)oxy]phenyl}-N′-[3-(3-methylphenyl)propanoyl]thiourea], for which the IC50 at PDGF-Ra is 13 nM. Besides, the inhibition at 1 µM on c-kit (at 1000 nM) came out at 26%.
For the compound `COc1cc2ncnc(Oc3ccc(NC(=S)NC(=O)CCCCl)cc3)c2cc1OC` [Example 1186, N-(4-Chlorobutanoyl)-N′-{4-[(6,7-dimethoxy-4-quinazolinyl)oxy]phenyl}thiourea], the IC50 at PDGF-Ra was less than 10 nM; at c-kit (h-SCF stimulation) it was 405 nM.
On the same counts, the results for `CCCCCC(=O)NC(=S)Nc1ccc(Oc2ncnc3cc(OC)c(OC)cc23)cc1` [Example 1189, N-{4-[(6,7-Dimethoxy-4-quinazolinyl)oxy]phenyl}-N′-hexanoylthiourea] are 26 nM and 73 nM.
Take `COc1cc2nccc(Oc3ccc(NC(=S)NC(=O)C4CC4C)cc3Cl)c2cc1OC` (stereo not drawn) [Example 1190, N-{3-Chloro-4-[(6,7-dimethoxy-4-quinolyl)oxy]phenyl}-N′-[(2-methylcyclopropyl)carbonyl]thiourea]: the IC50 on PDGF-Ra turned out to be 24 nM; on c-kit (h-SCF stimulation), 240 nM.
`COc1cc2ncnc(Oc3ccc(NC(=S)NC(=O)C4CC4C)cc3)c2cc1OC` (stereo not drawn) [Example 1191, N-{4-[(6,7-Dimethoxy-4-quinazolinyl)oxy]phenyl}-N′-[(2-methylcyclopropyl)carbonyl]thiourea]: the values for the IC50 on PDGF-Ra and at c-kit (h-SCF stimulation) were 31 nM and 193 nM, respectively.
On the same counts, the results for `COc1cc2nccc(Oc3ccc(NC(=S)NC(=O)C4(C)CCCCC4)cc3Cl)c2cc1OC` [Example 1192, N-{3-Chloro-4-[(6,7-dimethoxy-4-quinolyl)oxy]phenyl}-N′-[(1-methylcyclohexyl)carbonyl]thiourea] are 19 nM and 672 nM.
As to `COc1cc2ncnc(Oc3ccc(NC(=S)NC(=O)C4(C)CCCCC4)cc3)c2cc1OC` [Example 1193, N-{4-[(6,7-Dimethoxy-4-quinazolinyl)oxy]phenyl}-N′-[(1-methylcyclohexyl)carbonyl]thiourea], at PDGF-Ra, the IC50 is less than 10 nM. Further, the inhibition at 1 µM at c-kit (at 1000 nM) amounted to 18%.
Take `COc1cc2ncnc(Oc3ccc(NC(=S)NC(=O)C4(c5ccccc5)CC4)cc3)c2cc1OC` [Example 1195, N-{4-[(6,7-Dimethoxy-4-quinazolinyl)oxy]phenyl}-N′-[(1-phenylcyclopropyl)carbonyl]thiourea]: the IC50 on PDGF-Ra worked out at 21 nM; on c-kit (h-SCF stimulation) it was 530 nM.
For `CCCC1CCC(C(=O)NC(=S)Nc2ccc(Oc3ccnc4cc(OC)c(OC)cc34)c(Cl)c2)CC1` (stereo not drawn) [Example 1196, N-{3-Chloro-4-[(6,7-dimethoxy-4-quinolyl)oxy]phenyl}-N′-[(4-propylcyclohexyl)carbonyl]thiourea], the IC50 was more than 100 nM on PDGF-Ra and 700 nM at c-kit (h-SCF stimulation).
Taken in the same sequence, the figures for `CCCC1CCC(C(=O)NC(=S)Nc2ccc(Oc3ncnc4cc(OC)c(OC)cc34)cc2)CC1` (stereo not drawn) [Example 1197, N-{4-[(6,7-Dimethoxy-4-quinazolinyl)oxy]phenyl}-N′-[(4-propylcyclohexyl)carbonyl]thiourea] were 25 nM and 219 nM.
Take `COc1cc2nccc(Oc3ccc(NC(=S)NC(=O)CCCCl)cc3Cl)c2cc1OC` [Example 1198, N-(4-Chlorobutanoyl)-N′-{3-chloro-4-[(6,7-dimethoxy-4-quinolyl)oxy]phenyl}thiourea]: the figures for the IC50 on PDGF-Ra and at c-kit (h-SCF stimulation) were less than 10 nM and 247 nM, respectively.
Taken in the same sequence, the figures for `CCCC(C)C(=O)NC(=S)Nc1ccc(Oc2ccnc3cc(OC)c(OC)cc23)c(Cl)c1` (stereo not drawn) [Example 1200, N-{3-Chloro-4-[(6,7-dimethoxy-4-quinolyl)oxy]phenyl}-N′-(2-methylpentanoyl)thiourea] were 25 nM and 716 nM.
On to `CCCC(C)C(=O)NC(=S)Nc1ccc(Oc2ncnc3cc(OC)c(OC)cc23)cc1` (stereo not drawn) [Example 1201, N-{4-[(6,7-Dimethoxy-4-quinazolinyl)oxy]phenyl}-N′-(2-methylpentanoyl)thiourea], for which the IC50 is less than 10 nM on PDGF-Ra and 450 nM on c-kit (h-SCF stimulation).
For `COc1cc2nccc(Oc3ccc(NC(=S)NC(=O)c4ccc(F)cc4F)c(Cl)c3)c2cc1OC` [Example 1202, N-{2-Chloro-4-[(6,7-dimethoxy-4-quinolyl)oxy]phenyl}-N′-(2,4-difluorobenzoyl)thiourea], on PDGF-Ra, the 50% inhibitory concentration (IC50) was determined as 50 nM. Further, at c-kit (at 1000 nM), the inhibition at 1 µM turned out to be 15%.
Regarding `COc1ccc(C(=O)NC(=S)Nc2ccc(Oc3ccnc4cc(OC)c(OC)cc34)c(Cl)c2)cc1OC` [Example 1204, N-{3-Chloro-4-[(6,7-dimethoxy-4-quinolyl)oxy]phenyl}-N′-(3,4-dimethoxybenzoyl)thiourea], the figures for the IC50 at PDGF-Ra and at c-kit (h-SCF stimulation) were 18 nM and 434 nM, respectively.
Regarding “N-{4-[(6,7-Dimethoxy-4-quinolyl)oxy]-2,3-dimethylphenyl}-N′-[3-(1-piperidinyl)propyl]thiourea [Example 558]”, the values for the IC50 at PDGF-Ra and at c-kit (50 ng/ml h-SCF) were 73 nM and 724 nM, respectively.
Take “N-{4-[(6,7-Dimethoxy-4-quinolyl)oxy]-2-chlorophenyl}-N′-(1-piperidinyl)urea [Example 595]”: at PDGF-Ra, the IC50 was 46 nM. Further, the “c-kit inhibition (%) at 1000 nM” value at c-kit (figure within parentheses in −( ) or >1000( ), at 1000 nM) is on record as “−(0) %”.
As to “N-{4-[(6,7-Dimethoxy-4-quinolyl)oxy]-2-chlorophenyl}-N′-[4-(N-benzyl)piperidinyl]urea [Example 605]”, the IC50 came out at 31 nM at PDGF-Ra and 394 nM at c-kit (50 ng/ml h-SCF).

What is called IC50 is the point on the concentration scale where inhibition reaches its midpoint. Broadly, the inhibition is the relative decrease from the control value, in per cent.

Source of the values: US7135466B2 (Kirin Beer Kabushiki Kaisha, priority 1999, dated 2006).
